Laboratory results taken from US20240285621A1, “PYRAZOLYL-PYRIMIDINE DERIVATIVES AS KINASE INHIBITORS” (NERVIANO MEDICAL SCIENCES S.R.L., priority 2020, published 2024).

Columns and labels:
[1] = molecular target: T1, SYK (Homo sapiens, UniProt P43405); experiment: Biochemical kinase inhibition assay on SYK, KinaseGlo assay format; settings: Table A; KinaseGlo format, pre-activated SYK 2.5 nM, ATP 2.5 μM, substrate BioDBn*327 125 uM, 60 minutes at rt; read-out: IC50 (μM) Kglo
T1 construct: Recombinant proteins SYK FL was produced at NMS via baculo virus infection in insect cells; His; GST; made in house; host or cells: insect cells (baculovirus)

[2] = molecular target: T1, SYK; experiment: Biochemical kinase inhibition assay on SYK, ADPGlo assay format; settings: Table A, pre-activated SYK 0.6 nM, ATP 60 μM, BioDBn*327 125 μM, 60 minutes at room temperature

Row | IC50 [1] [µM] | IC50 [2] [µM] | SMILES
1 | 0.015 | 0.033 | COc1cc(C#N)cc(Nc2nccc(-c3cc(C(=O)N[C@@H](C)CN(C)C)n(C)n3)n2)c1 [Example 78, 3-{2-[(3-cyano-5-methoxyphenyl)amino]pyrimidin-4-yl}-N-[(2S)-1-(dimethylamino)propan-2-yl]-1-methyl-1H-pyrazole-5-carboxamide]
2 | 0.007 | 0.026 | COc1cc(C#N)cc(Nc2nccc(-c3cc(C(=O)N[C@@H](C)CN4CCC4)n(C)n3)n2)c1 [Example 79, N-[(2S)-1-(azetidin-1-yl)propan-2-yl]-3-{2-[(3-cyano-5-methoxyphenyl)amino]pyrimidin-4-yl}-1-methyl-1H-pyrazole-5-carboxamide]

The remaining lines, values behind:

Row | SMILES | IC50 [1] [µM] | IC50 [2] [µM]
3 | COc1cc(Nc2nccc(-c3cc(C(=O)NCCN(C)C)n(C)n3)n2)cc(OC)c1 [Example 72, 3-{2-[(3,5-dimethoxyphenyl)amino]pyrimidin-4-yl}-N-[2-(dimethylamino)ethyl]-1-methyl-1H-pyrazole-5-carboxamide] | 0.034 | 0.087
4 | C[C@@H](CN(C)C)NC(=O)c1cc(-c2ccnc(Nc3cnn(C)c3)n2)nn1C [Example 75, N-[(2S)-1-(dimethylamino)propan-2-yl]-1-methyl-3-{2-[(1-methyl-1H-pyrazol-4-yl)amino]pyrimidin-4-yl}-1H-pyrazole-5-carboxamide] | 0.273 | 0.473
5 | COc1cncc(Nc2nccc(-c3cc(C(=O)N[C@@H](C)CN4CCC4)n(C)n3)n2)c1 [Example 80, N-[(2S)-1-(azetidin-1-yl)propan-2-yl]-3-{2-[(5-methoxypyridin-3-yl)amino]pyrimidin-4-yl}-1-methyl-1H-pyrazole-5-carboxamide] | 0.044 | 0.081
